{"source": "patent US8541617B2", "about": "“Cycloalkylphenyl substituted cyclic ketoenols” (Bayer Cropscience AG, priority 2006, dated 2013)", "key": {"[1]": {"excerpt": "Use was made of leaves which, fully developed, were cut from apple trees of the cultivar golden delicious.\nOnly the cuticles, free from hairs and stoma, of the upper sides of the leaves were then used. They were washed repeatedly alternating with water and a buffer solution of pH 7. The clean cuticles obtained were then mounted on Teflon plates and smoothed and dried with a gentle stream of air.\nIn the next step, the cuticle membranes obtained in this manner were placed into stainless steel diffusion cells (=transport chambers) for membrane transport studies. […] The arrangement was chosen such that the morphological outside of the cuticles was facing outwards, i.e. exposed to air, whereas the original inside was facing the interior of the diffusion cells.\nThe diffusion cells were filled with a 30% strength ethylene glycol/water solution. To determine the penetration, in each case 10 μl of the spray liquor of the composition below were applied to the outside of the cuticles. The spray liquor was prepared using local tap water of medium hardness.\nAfter the spray liquors had been applied, the water was allowed to evaporate and the chambers were inverted and placed into thermostated taps in which temperature and atmospheric humidity over the cuticles could be adjusted using a gentle stream of air onto the cuticles with the spray coating (20° C., 60% rh)."}, "[2]": {"test_system": "green peach aphid (Myzus persicae)", "experiment": "Example G: Myzus persicae test, hydroponic treatment (MYZUPE sys.)", "format": "in vivo", "settings": "concentration 20 ppm, pea plant", "method": "Myzus persicae Test, Hydroponic Treatment (MYZUPE sys.)\nSolvent: 7 parts by weight of dimethylformamide\nEmulsifier: 2 parts by weight of alkylaryl polyglycol ether\nTo produce a suitable preparation of active compound, 1 part by weight of active compound is mixed with the stated amounts of solvent and emulsifier, and the concentrate is diluted with water to the desired concentration.\nThe preparation of active compound is mixed with water. The stated concentration refers to the amount of active compound per volume unit of water (mg/l=ppm). The treated water is filled into vessels containing a pea plant (Pisum sativum) which is then infested with the green peach aphid (Myzus persicae).\nAfter the desired period of time, the kill in percent is determined. 100% means that all aphids have been killed; 0% means that none of the aphids have been killed."}, "Setaria viridis": {"test_system": "Setaria viridis", "experiment": "Example B: Herbicidal post-emergence action", "format": "in vivo", "settings": "application rate 320 g/ha, rated after about 3 weeks", "method": "(§1) Herbicidal Post-Emergence Action\n(§2) Seeds of monocotylos and dicotylos weed and crop plants are placed in sandy lawn in wood fibre pots, covered with soil and cultivated in a greenhouse under good growth conditions. Two to three weeks after sowing, the test plants are treated at the one-leaf stage. The test compounds, formulated as wettable powders (WP) or as emulsion concentrates (EC), are then, as an aqueous suspension with a water application rate of 800 l/ha (converted), with 0.2% of wetting agent added, sprayed onto the green parts of the plants. After the test plants have been kept in the greenhouse under optimum growth conditions for about 3 weeks, the effect of the preparations is rated visually in comparison to untreated controls (herbicidal effect in percent (%): 100% effect=the plants have died, 0% effect=like control plants)."}, "Lolium multiflorum": {"test_system": "Lolium multiflorum", "experiment": "Example B: Herbicidal post-emergence action", "format": "in vivo", "settings": "application rate 320 g/ha, rated after about 3 weeks", "method": "as §1, §2"}}, "data": [{"smiles": "CCc1cc(C2CC2)cc(C2CC2)c1C1=C(O)C(C)(C)NC1=O", "note": "[Example I-1-a-21]", "values": [{"measurement": "Penetration after 24 h/% a.i. + AS (1 g/l)", "setting": "[1]", "value": 1.1, "unit": "%"}, {"measurement": "Penetration after 24 h/% a.i. + RME (1 g/l)", "setting": "[1]", "value": 35.6, "unit": "%"}, {"measurement": "Penetration after 24 h/% a.i. + RME (1 g/l) + AS (1 g/l)", "setting": "[1]", "value": 56.9, "unit": "%"}]}, {"smiles": "COC1CCC2(CC1)NC(=O)C(c1c(C)cc(C3CC3)cc1C)=C2O", "note": "(stereo not drawn) [Example I-1-a-4]", "values": [{"measurement": "efficacy (kill of aphids)", "setting": "[2]", "value": "≥ 90", "unit": "%"}]}, {"smiles": "CCOC(=O)OC1=C(c2c(C)cc(C3CC3)cc2CC)C(=O)NC12CCC(OC)CC2", "note": "(stereo not drawn) [Example I-1-c-1]", "values": [{"measurement": "herbicidal effect (efficacy), post-emergence", "setting": "Setaria viridis", "value": "≥ 90", "unit": "%"}, {"measurement": "herbicidal effect (efficacy), post-emergence", "setting": "Lolium multiflorum", "value": "≥ 90", "unit": "%"}]}]}
